Reference: patent US8017606B2, “Quinoline derivatives as antibacterial agents” (Janssen Pharmaceutica NV, priority 2005, dated 2011)
Converted amounts (≈) assume the structure as drawn.

How the values were obtained:
[1] = test system: Listeria monocytogenes (ATCC49594); assay: Microtitre plate assay, IC90 determination; format: cell-based; conditions: 90% inhibitory concentration for bacterial growth, 37° C., resazurin fluorescence, read-out: IC90 (μg/ml) LMO 49594
Experimental: (§1) The bacteria used in this study were grown overnight in flasks containing 100 ml Mueller-Hinton Broth (Becton Dickinson—cat. no. 275730) in sterile de-ionized water, with shaking, at 37° C. Stocks (0.5 ml/tube) were stored at −70° C. until use. Bacteria titrations were performed in microtiter plates and colony forming units (CFUs) were determined. In general, an inoculum level of approximately 100 CFUs was used for susceptibility testing.
(§2) Anti Bacterial Susceptibility Testing: IC90 Determination
(§3) Flat-bottom, sterile 96-well plastic microtiter plates were filled with 180 μl of sterile deionized water, supplemented with 0.25% BSA. Subsequently, stock solutions (7.8×final test concentration) of compounds were added in 45 μl volumes in column 2 Serial five-fold dilutions (45 μl in 180 μl) were made directly in the microtiter plates from column 2 to reach column 11. Untreated control samples with (column 1) and without (column 12) inoculum were included in each microtiter plate. Depending on the bacteria type, approximately 10 to 60 CFU per well of bacteria inoculum (100 TCID50), in a volume of 100 μl in 2.8× Mueller-Hinton broth medium, was added to the rows A to H, except column 12. The same volume of broth medium without inoculum was added to column 12 in row A to H. The cultures were incubated at 37° C. for 24 hours under a normal atmosphere (incubator with open air valve and continuous ventilation). At the end of incubation, one day after inoculation, the bacterial growth was quantitated fluorometrically. Therefore resazurin (0.6 mg/ml) was added in a volume of 20 μl to all wells […], and the plates were re-incubated overnight. A change in colour from blue to pink indicated the growth of bacteria.
(§4) The fluorescence was read in a computer-controlled fluorometer (Cytofluor Biosearch) at an excitation wavelength of 530 nm and an emission wavelength of 590 nm. The % growth inhibition achieved by the compounds was calculated according to standard methods. The IC90 (expressed in μg/ml) was defined as the 90% inhibitory concentration for bacterial growth.

[2] = test system: Pseudomonas aeruginosa (ATCC27853); assay: Microtitre plate assay, IC90 determination; format: cell-based; conditions: 90% inhibitory concentration for bacterial growth, 37° C., resazurin fluorescence, read-out: IC90 (μg/ml) PAE 27853
Experimental: as §1, §2, §3, §4

[3] = test system: Streptococcus mutans (ATCC33402); assay: Microtitre plate assay, IC90 determination; format: cell-based; conditions: 90% inhibitory concentration for bacterial growth, 37° C., resazurin fluorescence, read-out: IC90 (μg/ml) SMU 33402
Experimental: as §1, §2, §3, §4

[4] = test system: Streptococcus pyogens (ATCC8668); assay: Microtitre plate assay, IC90 determination; format: cell-based; conditions: 90% inhibitory concentration for bacterial growth, 37° C., resazurin fluorescence, read-out: IC90 (μg/ml) SPY 8668
Experimental: as §1, §2, §3, §4

[5] = test system: methicilline resistant Staphylococcus aureus (MRSA) (a clinical isolate from the University of Antwerp); assay: Microtitre plate assay, IC90 determination; format: cell-based; conditions: 90% inhibitory concentration for bacterial growth, 37° C., resazurin fluorescence, read-out: IC90 (μg/ml) STA RMETHIC
Experimental: as §1, §2, §3, §4

[6] = test system: Bacillus subtilis (ATCC43639); assay: Microtitre plate assay, IC90 determination; format: cell-based; conditions: 90% inhibitory concentration for bacterial growth, 37° C., resazurin fluorescence, read-out: IC90 (μg/ml) BSU 43639
Experimental: as §1, §2, §3, §4

[7] = test system: Streptococcus pneumoniae (ATCC6305); assay: Microtitre plate assay, IC90 determination; format: cell-based; conditions: 90% inhibitory concentration for bacterial growth, 37° C., resazurin fluorescence, read-out: IC90 (μg/ml) SPN 6305
Experimental: as §1, §2, §3, §4

[8] = test system: Staphylococcus aureus (ATCC25923); assay: Microtitre plate assay, IC90 determination; format: cell-based; conditions: 90% inhibitory concentration for bacterial growth, 37° C., resazurin fluorescence, read-out: IC90 (μg/ml) STA 25923
Experimental: as §1, §2, §3, §4

[9] = test system: Enterococcus faecalis (ATCC14506); assay: Microtitre plate assay, IC90 determination; format: cell-based; conditions: 90% inhibitory concentration for bacterial growth, 37° C., resazurin fluorescence, read-out: IC90 (μg/ml) EFA 14506
Experimental: as §1, §2, §3, §4

[10] = test system: Enterococcus faecalis (ATCC29212); assay: Microtitre plate assay, IC90 determination; format: cell-based; conditions: 90% inhibitory concentration for bacterial growth, 37° C., resazurin fluorescence, read-out: IC90 (μg/ml) EFA 29212
Experimental: as §1, §2, §3, §4

[11] = test system: Staphylococcus aureus (ATCC29213); assay: Microtitre plate assay, IC90 determination; format: cell-based; conditions: 90% inhibitory concentration for bacterial growth, 37° C., resazurin fluorescence, read-out: IC90 (μg/ml) STA 29213
Experimental: as §1, §2, §3, §4

Structure (SMILES)	IC90 [1]	IC90 [2]	IC90 [3]	IC90 [4]	IC90 [6]	IC90 [7]	IC90 [8]	IC90 [9]	IC90 [10]	IC90 [11]	melting point	IC90 [5]
CN(C)CCC(O)(c1cccc2ccccc12)c1cc(Br)cc2cc(-c3ccccc3)c(-n3cncn3)nc12 (stereo not drawn) [Compound 33]	14.5 µg/mL (≈ 25.1 µM)	14.5 µg/mL (≈ 25.1 µM)	11.5 µg/mL (≈ 19.9 µM)	11.5 µg/mL (≈ 19.9 µM)	11.5 µg/mL (≈ 19.9 µM)	14.5 µg/mL (≈ 25.1 µM)	14.5 µg/mL (≈ 25.1 µM)	46 µg/mL (≈ 79.5 µM)	14.5 µg/mL (≈ 25.1 µM)	14.5 µg/mL (≈ 25.1 µM)	–	14.5 µg/mL (≈ 25.1 µM)
CC(=O)c1ccc(N2CCN(c3nc4c(C(O)(CCN(C)C)c5ccccc5)cc(Br)cc4cc3Cc3ccccc3)CC2)cc1 (stereo not drawn) [Compound 54]	–	17 µg/mL (≈ 25.1 µM)	17 µg/mL (≈ 25.1 µM)	17 µg/mL (≈ 25.1 µM)	–	17 µg/mL (≈ 25.1 µM)	–	–	17 µg/mL (≈ 25.1 µM)	17 µg/mL (≈ 25.1 µM)	–	–
COc1nc2c(C(O)(CCN(C)C)c3cc(F)cc(F)c3)cc(-c3cccnc3)cc2cc1-c1ccccc1 (stereo not drawn) [Compound 64]	13.2 µg/mL (≈ 25.1 µM)	13.2 µg/mL (≈ 25.1 µM)	2.1 µg/mL (≈ 4 µM)	2.1 µg/mL (≈ 4 µM)	8.3 µg/mL (≈ 15.8 µM)	10.5 µg/mL (≈ 20 µM)	6.6 µg/mL (≈ 12.6 µM)	10.5 µg/mL (≈ 20 µM)	13.2 µg/mL (≈ 25.1 µM)	8.3 µg/mL (≈ 15.8 µM)	–	11.8 µg/mL (≈ 22.5 µM)
CN(C)CCC(O)(c1ccccc1)c1cc(-c2cccnc2)cc2cc(-c3ccccc3)c(-c3cccnc3)nc12 (stereo not drawn) [Compound 65]	13.5 µg/mL (≈ 25.2 µM)	13.5 µg/mL (≈ 25.2 µM)	13.5 µg/mL (≈ 25.2 µM)	13.5 µg/mL (≈ 25.2 µM)	13.5 µg/mL (≈ 25.2 µM)	13.5 µg/mL (≈ 25.2 µM)	13.5 µg/mL (≈ 25.2 µM)	–	13.5 µg/mL (≈ 25.2 µM)	13.5 µg/mL (≈ 25.2 µM)	–	13.5 µg/mL (≈ 25.2 µM)
CN(C)CCC(O)(c1cccc2ccccc12)c1cc(Br)cc2cc(-c3ccccc3)c(=O)[nH]c12 (stereo not drawn) [Compound 69]	41.9 µg/mL (≈ 79.4 µM)	13.3 µg/mL (≈ 25.2 µM)	–	13.3 µg/mL (≈ 25.2 µM)	52.8 µg/mL (≈ 100 µM)	13.3 µg/mL (≈ 25.2 µM)	52.8 µg/mL (≈ 100 µM)	–	13.3 µg/mL (≈ 25.2 µM)	13.3 µg/mL (≈ 25.2 µM)	190 °C	52.8 µg/mL (≈ 100 µM)

More lines, main results first:

IC90 [1]	IC90 [2]	IC90 [3]	IC90 [4]	IC90 [6]	IC90 [7]	IC90 [8]	IC90 [9]	IC90 [10]	IC90 [11]	melting point	Structure (SMILES)	IC90 [5]
11.6 µg/mL (≈ 25.1 µM)	11.6 µg/mL (≈ 25.1 µM)	9.2 µg/mL (≈ 19.9 µM)	9.2 µg/mL (≈ 19.9 µM)	9.2 µg/mL (≈ 19.9 µM)	11.6 µg/mL (≈ 25.1 µM)	10.3 µg/mL (≈ 22.3 µM)	10.3 µg/mL (≈ 22.3 µM)	11.6 µg/mL (≈ 25.1 µM)	9.2 µg/mL (≈ 19.9 µM)	–	CN(C)CCC(O)(c1cc(F)cc(F)c1)c1cccc2nc(N(C)C)c(-c3ccccc3)cc12 (stereo not drawn) [Compound 45]	46.2 µg/mL (≈ 100 µM)
60.3 µg/mL (≈ 100 µM)	47.9 µg/mL (≈ 79.5 µM)	47.9 µg/mL (≈ 79.5 µM)	47.9 µg/mL (≈ 79.5 µM)	60.3 µg/mL (≈ 100 µM)	60.3 µg/mL (≈ 100 µM)	53.7 µg/mL (≈ 89.1 µM)	–	60.3 µg/mL (≈ 100 µM)	53.7 µg/mL (≈ 89.1 µM)	131 °C	CN(C)CCC(O)(c1ccccc1)c1cc(Br)cc2cc(Cc3ccccc3)c(OCCN3CCCCC3)nc12 (stereo not drawn) [Compound 48]	60.3 µg/mL (≈ 100 µM)
50.4 µg/mL (≈ 100 µM)	40 µg/mL (≈ 79.4 µM)	40 µg/mL (≈ 79.4 µM)	40 µg/mL (≈ 79.4 µM)	50.4 µg/mL (≈ 100 µM)	50.4 µg/mL (≈ 100 µM)	50.4 µg/mL (≈ 100 µM)	–	50.4 µg/mL (≈ 100 µM)	40 µg/mL (≈ 79.4 µM)	180 °C	COc1nc2c(C(O)(CCN(C)C)c3ccccc3)cc(-c3cccnc3)cc2cc1Cc1ccccc1 (stereo not drawn) [Compound 66]	50.4 µg/mL (≈ 100 µM)
39 µg/mL (≈ 79.5 µM)	9.8 µg/mL (≈ 20 µM)	9.8 µg/mL (≈ 20 µM)	9.8 µg/mL (≈ 20 µM)	12.3 µg/mL (≈ 25.1 µM)	12.3 µg/mL (≈ 25.1 µM)	12.3 µg/mL (≈ 25.1 µM)	–	49.1 µg/mL (≈ 100 µM)	12.3 µg/mL (≈ 25.1 µM)	–	COc1nc2ccccc2c(CC(O)(CCN(C)C)c2cccc3ccccc23)c1Cc1ccccc1 (stereo not drawn) [Compound 70]	12.3 µg/mL (≈ 25.1 µM)
9.2 µg/mL (≈ 20.1 µM)	11.5 µg/mL (≈ 25.1 µM)	9.2 µg/mL (≈ 20.1 µM)	9.2 µg/mL (≈ 20.1 µM)	11.5 µg/mL (≈ 25.1 µM)	11.5 µg/mL (≈ 25.1 µM)	11.5 µg/mL (≈ 25.1 µM)	–	11.5 µg/mL (≈ 25.1 µM)	11.5 µg/mL (≈ 25.1 µM)	123 °C	COc1nc2ccccc2c(CC(O)(CCN(C)C)c2cccc(F)c2)c1Cc1ccccc1 (stereo not drawn) [Compound 71]	11.5 µg/mL (≈ 25.1 µM)
